Experimental data taken from article PMC8333425, “Discovery of a dual Ras and ARF6 inhibitor from a GPCR endocytosis screen” (Nature Communications, 2021).

How the values were obtained:
Experiment in all cases: KINOMEscan kinase binding assay
[1] = biological target: T1, 384 kinases from the human genome (Homo sapiens, UniProt Q8IW41); conditions: kinase MAPKAPK5 (Entrez MAPKAPK5)
T1 construct: purchased Eurofin/DiscoverX
How it was run: (§1)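 A panel of 384 human kinases was profiled by KINOMEscan binding in the presence of 10 µM compound. Kinase–ligand binding was given as percent of DMSO control, averaged from duplicates in a single run, with an S(10) selectivity score.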

[2] = biological target: T2, 384 kinases from the human genome (Homo sapiens, UniProt P06241); conditions: kinase FYN (Entrez FYN)
T2 construct: purchased Eurofin/DiscoverX
How it was run: as §1

[3] = biological target: T3, 384 kinases from the human genome (Homo sapiens, UniProt P57078); conditions: kinase RIPK4 (Entrez RIPK4)
T3 construct: purchased Eurofin/DiscoverX
How it was run: as §1

[4] = biological target: T4, 384 kinases from the human genome (Homo sapiens, UniProt Q16584); conditions: kinase MLK3 (Entrez MAP3K11)
T4 construct: purchased Eurofin/DiscoverX
How it was run: as §1

[5] = biological target: T5, 384 kinases from the human genome (Homo sapiens, UniProt Q9UM73); conditions: kinase ALK (Entrez ALK)
T5 construct: purchased Eurofin/DiscoverX
How it was run: as §1

[6] = biological target: T6, 384 kinases from the human genome (Homo sapiens, UniProt Q06418); conditions: kinase TYRO3 (Entrez TYRO3)
T6 construct: purchased Eurofin/DiscoverX
T6 sequence (Q06418 41-890): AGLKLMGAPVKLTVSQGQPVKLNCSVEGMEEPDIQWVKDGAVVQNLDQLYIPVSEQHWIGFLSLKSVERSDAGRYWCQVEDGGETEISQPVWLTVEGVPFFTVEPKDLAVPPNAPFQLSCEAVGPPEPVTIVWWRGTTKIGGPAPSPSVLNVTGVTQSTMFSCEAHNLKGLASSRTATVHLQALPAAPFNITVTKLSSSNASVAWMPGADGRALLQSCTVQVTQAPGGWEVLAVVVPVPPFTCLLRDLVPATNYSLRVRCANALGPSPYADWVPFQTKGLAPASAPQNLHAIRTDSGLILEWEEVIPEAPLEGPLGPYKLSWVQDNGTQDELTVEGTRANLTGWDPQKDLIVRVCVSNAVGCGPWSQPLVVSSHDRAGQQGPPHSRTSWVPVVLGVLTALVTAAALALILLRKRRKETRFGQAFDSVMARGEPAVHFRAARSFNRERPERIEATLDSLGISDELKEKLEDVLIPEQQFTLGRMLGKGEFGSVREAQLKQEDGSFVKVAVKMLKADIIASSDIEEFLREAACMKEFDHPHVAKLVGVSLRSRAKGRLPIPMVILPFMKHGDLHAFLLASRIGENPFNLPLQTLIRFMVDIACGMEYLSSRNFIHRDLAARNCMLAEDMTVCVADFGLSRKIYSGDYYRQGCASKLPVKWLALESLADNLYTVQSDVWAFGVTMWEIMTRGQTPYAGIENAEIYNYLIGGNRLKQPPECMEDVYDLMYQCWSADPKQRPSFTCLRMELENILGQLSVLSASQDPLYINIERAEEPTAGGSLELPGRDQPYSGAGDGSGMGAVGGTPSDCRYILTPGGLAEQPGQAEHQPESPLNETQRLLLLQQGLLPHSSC
How it was run: as §1

[7] = biological target: T7, 384 kinases from the human genome (Homo sapiens, UniProt P78356); conditions: kinase PIP5K2B (Entrez PIP4K2B)
T7 construct: purchased Eurofin/DiscoverX
How it was run: as §1

[8] = biological target: T8, 384 kinases from the human genome (Homo sapiens, UniProt P11802)
T8 construct: purchased Eurofin/DiscoverX
T8 sequence (P11802 whole entry): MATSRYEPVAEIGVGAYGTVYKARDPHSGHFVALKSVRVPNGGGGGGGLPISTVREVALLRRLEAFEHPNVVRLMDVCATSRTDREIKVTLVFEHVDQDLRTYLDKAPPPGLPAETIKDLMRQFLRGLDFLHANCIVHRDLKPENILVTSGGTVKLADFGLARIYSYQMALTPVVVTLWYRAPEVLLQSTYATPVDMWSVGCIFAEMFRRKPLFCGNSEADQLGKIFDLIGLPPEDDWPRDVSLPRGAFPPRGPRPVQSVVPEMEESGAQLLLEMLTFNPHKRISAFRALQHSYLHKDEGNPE
How it was run: as §1

[9] = biological target: T9, 384 kinases from the human genome (Homo sapiens, UniProt P04049); conditions: kinase RAF1 (Entrez RAF1)
T9 construct: purchased Eurofin/DiscoverX
How it was run: as §1

[10] = biological target: T10, 384 kinases from the human genome (Homo sapiens, UniProt Q9C098); conditions: kinase DCAMKL3 (Entrez DCLK3)
T10 construct: purchased Eurofin/DiscoverX
T10 sequence (Q9C098 whole entry): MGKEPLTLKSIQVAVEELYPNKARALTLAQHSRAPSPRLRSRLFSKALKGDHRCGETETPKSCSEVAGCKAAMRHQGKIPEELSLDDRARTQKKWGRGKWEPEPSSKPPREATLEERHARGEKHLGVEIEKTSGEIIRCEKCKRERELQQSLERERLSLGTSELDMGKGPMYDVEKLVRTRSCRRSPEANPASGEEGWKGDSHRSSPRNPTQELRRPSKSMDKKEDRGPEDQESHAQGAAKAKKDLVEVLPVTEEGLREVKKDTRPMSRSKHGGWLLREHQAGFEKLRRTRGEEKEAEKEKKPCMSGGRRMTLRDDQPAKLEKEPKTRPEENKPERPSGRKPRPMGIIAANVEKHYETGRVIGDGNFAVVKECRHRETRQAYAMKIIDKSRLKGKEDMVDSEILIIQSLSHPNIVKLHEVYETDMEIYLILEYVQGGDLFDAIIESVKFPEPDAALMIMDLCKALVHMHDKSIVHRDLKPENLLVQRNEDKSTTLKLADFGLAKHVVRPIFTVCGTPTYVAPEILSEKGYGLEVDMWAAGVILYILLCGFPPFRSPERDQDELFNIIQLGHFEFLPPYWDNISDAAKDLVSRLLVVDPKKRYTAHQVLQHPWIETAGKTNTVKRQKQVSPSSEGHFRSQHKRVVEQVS
How it was run: as §1

[11] = biological target: T11, 384 kinases from the human genome (Homo sapiens, UniProt P31749); conditions: kinase AKT1 (Entrez AKT1)
T11 construct: purchased Eurofin/DiscoverX
How it was run: as §1

[12] = biological target: T12, 384 kinases from the human genome (Homo sapiens, UniProt Q96J92); conditions: kinase WNK4 (Entrez WNK4)
T12 construct: purchased Eurofin/DiscoverX
How it was run: as §1

[13] = biological target: T13, 384 kinases from the human genome (Homo sapiens, UniProt Q52WX2); conditions: kinase SBK1 (Entrez SBK1)
T13 construct: purchased Eurofin/DiscoverX
How it was run: as §1

[14] = biological target: T14, 384 kinases from the human genome (Homo sapiens, UniProt Q9HC98); conditions: kinase NEK6 (Entrez NEK6)
T14 construct: purchased Eurofin/DiscoverX
How it was run: as §1

[15] = biological target: T15, 384 kinases from the human genome (Homo sapiens, UniProt P29376); conditions: kinase LTK (Entrez LTK)
T15 construct: purchased Eurofin/DiscoverX
T15 sequence (P29376 17-864): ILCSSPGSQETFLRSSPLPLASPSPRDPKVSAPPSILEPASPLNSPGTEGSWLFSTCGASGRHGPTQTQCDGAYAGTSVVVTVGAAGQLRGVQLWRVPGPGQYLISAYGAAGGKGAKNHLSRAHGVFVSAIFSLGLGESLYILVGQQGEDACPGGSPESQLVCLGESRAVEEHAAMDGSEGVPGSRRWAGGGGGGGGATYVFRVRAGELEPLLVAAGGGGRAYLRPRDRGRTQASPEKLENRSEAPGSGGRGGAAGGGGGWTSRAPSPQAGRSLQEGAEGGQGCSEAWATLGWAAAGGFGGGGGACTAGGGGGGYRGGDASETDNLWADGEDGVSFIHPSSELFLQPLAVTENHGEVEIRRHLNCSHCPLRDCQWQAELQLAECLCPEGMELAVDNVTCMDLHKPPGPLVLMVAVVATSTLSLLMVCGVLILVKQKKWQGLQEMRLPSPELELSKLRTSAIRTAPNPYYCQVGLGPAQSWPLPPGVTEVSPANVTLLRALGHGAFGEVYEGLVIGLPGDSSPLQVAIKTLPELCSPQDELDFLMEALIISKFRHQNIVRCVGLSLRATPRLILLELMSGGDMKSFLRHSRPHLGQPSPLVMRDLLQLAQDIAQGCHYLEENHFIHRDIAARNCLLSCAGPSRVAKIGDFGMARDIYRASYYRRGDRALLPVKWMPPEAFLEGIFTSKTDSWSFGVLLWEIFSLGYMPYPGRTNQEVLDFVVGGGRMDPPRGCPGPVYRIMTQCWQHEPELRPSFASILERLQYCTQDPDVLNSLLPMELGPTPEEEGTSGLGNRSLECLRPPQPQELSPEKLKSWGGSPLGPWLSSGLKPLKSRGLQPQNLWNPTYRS
How it was run: as §1

[16] = biological target: T16, 384 kinases from the human genome (Homo sapiens, UniProt Q7KZI7); conditions: kinase MARK2 (Entrez MARK2)
T16 construct: purchased Eurofin/DiscoverX
How it was run: as §1

[17] = biological target: T17, 384 kinases from the human genome (Homo sapiens, UniProt Q99683); conditions: kinase ASK1 (Entrez MAP3K5)
T17 construct: purchased Eurofin/DiscoverX
T17 sequence (Q99683 whole entry): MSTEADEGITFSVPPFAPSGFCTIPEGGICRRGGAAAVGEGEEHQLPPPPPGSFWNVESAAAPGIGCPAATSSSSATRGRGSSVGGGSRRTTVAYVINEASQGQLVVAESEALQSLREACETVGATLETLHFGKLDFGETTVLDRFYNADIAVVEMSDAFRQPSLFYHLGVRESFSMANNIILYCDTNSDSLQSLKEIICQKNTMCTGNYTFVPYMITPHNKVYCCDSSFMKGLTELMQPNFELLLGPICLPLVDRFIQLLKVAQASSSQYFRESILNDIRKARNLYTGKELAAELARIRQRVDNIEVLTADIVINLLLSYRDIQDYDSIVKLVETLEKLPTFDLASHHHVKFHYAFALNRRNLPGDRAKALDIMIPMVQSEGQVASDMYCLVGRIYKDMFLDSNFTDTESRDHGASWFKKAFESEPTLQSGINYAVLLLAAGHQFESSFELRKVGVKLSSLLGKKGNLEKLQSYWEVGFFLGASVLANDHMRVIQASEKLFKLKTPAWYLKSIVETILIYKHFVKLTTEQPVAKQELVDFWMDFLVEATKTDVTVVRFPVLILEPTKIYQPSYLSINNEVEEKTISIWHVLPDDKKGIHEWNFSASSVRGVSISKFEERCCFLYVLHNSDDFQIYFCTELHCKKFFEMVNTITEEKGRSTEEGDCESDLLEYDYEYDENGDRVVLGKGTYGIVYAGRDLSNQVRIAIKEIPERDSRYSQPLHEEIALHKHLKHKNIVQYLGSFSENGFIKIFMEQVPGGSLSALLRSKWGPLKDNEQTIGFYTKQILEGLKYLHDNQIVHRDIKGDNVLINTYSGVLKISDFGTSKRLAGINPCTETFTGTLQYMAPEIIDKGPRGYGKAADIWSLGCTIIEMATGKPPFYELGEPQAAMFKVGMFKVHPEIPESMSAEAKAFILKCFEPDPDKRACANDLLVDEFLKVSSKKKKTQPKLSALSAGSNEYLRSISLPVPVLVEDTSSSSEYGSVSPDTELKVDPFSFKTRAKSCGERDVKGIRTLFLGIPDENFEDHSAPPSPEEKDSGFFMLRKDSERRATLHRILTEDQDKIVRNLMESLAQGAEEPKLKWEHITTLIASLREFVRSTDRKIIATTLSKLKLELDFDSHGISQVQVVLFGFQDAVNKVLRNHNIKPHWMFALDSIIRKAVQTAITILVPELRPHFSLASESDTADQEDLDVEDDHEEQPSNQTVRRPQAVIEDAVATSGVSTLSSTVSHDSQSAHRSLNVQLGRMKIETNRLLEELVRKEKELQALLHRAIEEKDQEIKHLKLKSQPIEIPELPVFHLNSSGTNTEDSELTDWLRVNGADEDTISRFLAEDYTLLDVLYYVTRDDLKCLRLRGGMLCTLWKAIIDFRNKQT
How it was run: as §1

[18] = biological target: T18, 384 kinases from the human genome (Homo sapiens, UniProt P16591); conditions: kinase FER (Entrez FER)
T18 construct: purchased Eurofin/DiscoverX
How it was run: as §1

[19] = biological target: T19, 384 kinases from the human genome (Homo sapiens, UniProt Q8TDX7); conditions: kinase NEK7 (Entrez NEK7)
T19 construct: purchased Eurofin/DiscoverX
T19 sequence (Q8TDX7 whole entry): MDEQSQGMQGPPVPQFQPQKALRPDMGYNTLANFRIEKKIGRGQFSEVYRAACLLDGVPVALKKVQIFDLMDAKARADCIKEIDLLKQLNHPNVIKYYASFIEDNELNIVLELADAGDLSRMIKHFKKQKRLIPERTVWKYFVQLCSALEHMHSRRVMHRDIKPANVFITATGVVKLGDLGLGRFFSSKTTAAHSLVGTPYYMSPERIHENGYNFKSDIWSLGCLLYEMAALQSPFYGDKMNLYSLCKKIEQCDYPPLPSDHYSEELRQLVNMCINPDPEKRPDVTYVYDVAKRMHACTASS
How it was run: as §1

[20] = biological target: T20, 384 kinases from the human genome (Homo sapiens, UniProt P19525); conditions: kinase PRKR (Entrez EIF2AK2)
T20 construct: purchased Eurofin/DiscoverX
How it was run: as §1

[21] = biological target: T21, 384 kinases from the human genome (Homo sapiens, UniProt Q9BZL6); conditions: kinase PRKD2 (Entrez PRKD2)
T21 construct: purchased Eurofin/DiscoverX
How it was run: as §1

[22] = biological target: T22, 384 kinases from the human genome (Homo sapiens, UniProt P42345); conditions: kinase MTOR (Entrez MTOR)
T22 construct: purchased Eurofin/DiscoverX
How it was run: as §1

[23] = biological target: T23, 384 kinases from the human genome (Homo sapiens, UniProt Q00532); conditions: kinase CDKL1 (Entrez CDKL1)
T23 construct: purchased Eurofin/DiscoverX
How it was run: as §1

[24] = biological target: T24, 384 kinases from the human genome (Homo sapiens, UniProt P08631); conditions: kinase HCK (Entrez HCK)
T24 construct: purchased Eurofin/DiscoverX
How it was run: as §1

[25] = biological target: T25, 384 kinases from the human genome (Homo sapiens, UniProt Q99640); conditions: kinase PKMYT1 (Entrez PKMYT1)
T25 construct: purchased Eurofin/DiscoverX
T25 sequence (Q99640 whole entry): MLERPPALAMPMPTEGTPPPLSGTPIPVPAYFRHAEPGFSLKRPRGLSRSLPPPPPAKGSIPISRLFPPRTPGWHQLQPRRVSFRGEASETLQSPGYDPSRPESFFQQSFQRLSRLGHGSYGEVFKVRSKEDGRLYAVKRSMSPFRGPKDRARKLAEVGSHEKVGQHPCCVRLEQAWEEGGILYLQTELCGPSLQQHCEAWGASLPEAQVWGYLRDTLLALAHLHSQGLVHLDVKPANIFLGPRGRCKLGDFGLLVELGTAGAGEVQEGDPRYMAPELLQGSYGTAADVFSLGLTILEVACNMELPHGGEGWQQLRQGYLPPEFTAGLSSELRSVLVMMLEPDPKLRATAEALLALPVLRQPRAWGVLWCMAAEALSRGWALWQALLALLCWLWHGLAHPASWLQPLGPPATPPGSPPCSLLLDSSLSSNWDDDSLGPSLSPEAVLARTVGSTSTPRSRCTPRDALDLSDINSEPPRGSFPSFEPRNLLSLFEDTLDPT
How it was run: as §1

[26] = biological target: T26, 384 kinases from the human genome (Homo sapiens, UniProt P49759); conditions: kinase CLK1 (Entrez CLK1)
T26 construct: purchased Eurofin/DiscoverX
How it was run: as §1

For CC(C)C(=O)N1CCN(c2ccc(NC(=O)c3cc4ccccc4o3)cc2Cl)CC1 [Compound 21], the “Percent Control” value [1] was 98%, the “Percent Control” value [2] was 67% and the “Percent Control” value [3] was 87%. The “Percent Control” value [4] was 93%, the “Percent Control” value [5] was 89% and the “Percent Control” value [6] was 58%. The “Percent Control” value [7] was 83%, the “Percent Control” value ([8]; kinase CDK4 (Entrez CDK4)) was 97% and the “Percent Control” value ([8]; kinase CDK4-cyclinD1 (Entrez CDK4)) was 86%. The “Percent Control” value ([8]; kinase CDK4-cyclinD3 (Entrez CDK4)) was 96%, the “Percent Control” value [9] was 79% and the “Percent Control” value [10] was 97%. For the same compound, the “Percent Control” value [11] was 97%, the “Percent Control” value [12] was 100% and the “Percent Control” value [13] was 100%. For the same compound, the “Percent Control” value [14] was 94%, the “Percent Control” value [15] was 90% and the “Percent Control” value [16] was 80%. For the same compound, the “Percent Control” value [17] was 79%, the “Percent Control” value [18] was 90% and the “Percent Control” value [19] was 100%. The “Percent Control” value [20] was 65%, the “Percent Control” value [21] was 100% and the “Percent Control” value [22] was 65%. The “Percent Control” value [23] was 100%, the “Percent Control” value [24] was 99% and the “Percent Control” value [25] was 83%. For the same compound, the “Percent Control” value [26] was 98%.
